The text below walks through data of US11236047B2 (ASTEX THERAPEUTICS LIMITED, priority 2017, dated 2022).

Broadly, the inhibition is the drop in the measured response relative to a control, in per cent. By IC50 is commonly meant the concentration at which inhibition is half-maximal.

For one assay, the target named is MDM2-p53 interaction (Homo sapiens (Human), UniProt Q00987). The note with it: for inhibition at 0.03 µM: read-out: MDM2 % inhibition @0.030; for inhibition at 0.001 µM: read-out: MDM2 % inhibition @0.0010; for inhibition at 0.003 µM: read-out: MDM2 % inhibition @0.0030.
For another assay, the system named is SN40R2 cells. Nature of the assay: Protocol B: SN40R2 CellTiter-Glo luminescent cell viability assay. The settings on record: for inhibition at 10 µM: read-out: SN40R2 % inhibition at 10, Protocol B, SN40R2, at 10 μM; for inhibition at 3 µM: read-out: SN40R2 % inhibition at 3, Protocol B, SN40R2, at 3 μM. A general note: Cellular ATP, detected with luciferase, serves as a proxy for viable cell number.

The subject of a further assay is SJSA-1 cells. Nature of the assay: Protocol B: SJSA-1 CellTiter-Glo luminescent cell viability assay. The note with it: read-out: SJSA1 IC50; Protocol B, SJSA-1.

Chain of MDM2-p53 interaction (Q00987 whole entry): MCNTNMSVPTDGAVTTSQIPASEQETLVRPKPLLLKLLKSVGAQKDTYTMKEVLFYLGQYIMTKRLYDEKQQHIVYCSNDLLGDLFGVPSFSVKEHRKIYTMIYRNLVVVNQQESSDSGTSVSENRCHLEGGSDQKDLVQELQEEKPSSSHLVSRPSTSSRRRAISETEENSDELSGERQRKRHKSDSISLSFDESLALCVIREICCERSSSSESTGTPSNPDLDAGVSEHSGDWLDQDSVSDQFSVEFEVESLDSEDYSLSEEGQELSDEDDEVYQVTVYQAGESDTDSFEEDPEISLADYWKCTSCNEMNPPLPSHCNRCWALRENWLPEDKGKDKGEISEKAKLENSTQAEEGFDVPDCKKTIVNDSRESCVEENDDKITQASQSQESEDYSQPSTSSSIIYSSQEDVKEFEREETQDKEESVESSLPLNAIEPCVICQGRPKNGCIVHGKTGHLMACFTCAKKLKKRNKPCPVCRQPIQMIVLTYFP
Procedure for MDM2-p53 interaction: MDM2-053 Interaction Using a 96-Well Plate Binding Assay (ELISA)
The ELISA assay was performed in streptavidin coated plates which were preincubated with 200 μl per well of 1 μg ml^−1 biotinylated IP3 peptide. The plates were ready to use for MDM2 binding after washing the plate with PBS.
The bound HRP activity was measured by enhanced chemiluminesence (ECL™, Amersham Biosciences) using the oxidation of the diacylhydrazide substrate, luminol, to generate a quantifiable light signal. The percentage of MDM2 inhibition at a given concentration is calculated as the [1−(RLU detected in the compound treated sample−RLU negative DMSO control)÷(RLU of DMSO positive and negative controls)]×100 or as the (RLU detected in the compound treated sample÷RLU of DMSO controls)×100. The IC50 was calculated using a plot of % MDM2 inhibition vs concentration and is the average of two or three independent experiments.
Procedure for SN40R2 cells: Protocol B: SJSA-1 and SN40R2 Assays
The CellTiter-Glo® Luminescent Cell Viability Assay is a homogeneous method to determine the number of viable cells in culture based on quantitation of the ATP present, which signals the presence of metabolically active cells. […] 100 μl of CTG reagent (Promega #G7573) was added to all wells and luminescence was measured on the topcount. The EC50 values were determined from a sigmoidal 4 parameter curve fit using XLfit in conjunction with Activity Base (IDBS; Guildford, Surrey, UK).

`Cc1c[nH]c(C(C)(O)c2cc(F)c3c(c2)C(=O)N(Cc2ccc(Cl)cn2)[C@@]3(OCC2(O)CC2)c2ccc(Cl)cc2)n1` (mixture of isomers) [Example 332, (3R)-3-(4-chlorophenyl)-2-[(5-chloropyridin-2-yl)methyl]-4-fluoro-6-[1-hydroxy-1-(4-methyl-1H-imidazol-2-yl)ethyl]-3-[(1-hydroxycyclopropyl)methoxy]-2,3-dihydro-1H-isoindol-1-one]: at MDM2-p53 interaction, the inhibition at 0.03 µM is 60%. For the same compound, the inhibition at 10 µM with SN40R2 cells turned out to be 5%.
`CCC(O)(c1cc(F)c2c(c1)C(=O)N(Cc1ncc(Cl)cn1)[C@@]2(O[C@H]1CCOC1)c1ccc(Cl)cc1)C1CCNCC1` (single isomer, unassigned) [Example 448]: the inhibition at 0.001 µM on MDM2-p53 interaction was 84%. Further, the inhibition at 30 µM in the assay on SN40R2 cells (read-out: SN40R2 % inhibition at 30, Protocol B, SN40R2, at 30 μM) was 48%.
As for `CCC(O)(c1cc(F)c2c(c1)C(=O)N(Cc1ncc(Cl)cn1)[C@@]2(O[C@H]1CCOC1)c1ccc(Cl)cc1)C1CCN(C)CC1` (single isomer, unassigned) [Example 449], on MDM2-p53 interaction, the inhibition at 0.001 µM worked out at 78%. In addition, in the assay on SN40R2 cells, the inhibition at 10 µM came out at 19%.
For `CCCC(O)(c1cc(F)c2c(c1)C(=O)N(Cc1ccc(C#N)cn1)[C@@]2(O[C@H]1CCOC1)c1ccc(Cl)cc1)c1cn(C)cn1` (single isomer, unassigned) [Example 472], at MDM2-p53 interaction, the inhibition at 0.003 µM was 48%. Besides, the inhibition at 10 µM in the assay on SN40R2 cells was determined as 10%.
As for `CCC(O)(c1cc(F)c2c(c1)C(=O)N(Cc1ncc(Cl)cc1O)[C@@]2(O[C@H]1C[C@@H](O)C1)c1ccc(Cl)cc1)c1cn(C)cn1` (single isomer, unassigned) [Example 487], the inhibition at 0.001 µM on MDM2-p53 interaction is 59%. Besides, in the assay on SN40R2 cells, the inhibition at 10 µM came to 12%.
For `CCC(O)(c1cc(F)c2c(c1)C(=O)N(Cc1ccc(C#N)cn1)[C@@]2(OC)c1ccc(Cl)cc1)[C@H]1CC[C@H](O)CC1` (single isomer, unassigned) [Example 521], in that order: 77% and 11%.
Turning to `CCC(O)(c1cc(F)c2c(c1)C(=O)N(Cc1ncc(Cl)cn1)[C@@]2(O[C@H]1C[C@@H](O)C1)c1ccc(Cl)cc1)C1(F)CCNCC1` (single isomer, unassigned) [Example 542], on MDM2-p53 interaction (read-out: MDM2 % inhibition @0.010), the inhibition at 0.01 µM was 57%. In the assay on SN40R2 cells, the inhibition at 10 µM was -1%.
Turning to `CCC(O)(c1cc(F)c2c(c1)C(=O)N(Cc1ncc(Cl)cn1)[C@@]2(OC[C@@H](C)O)c1ccc(Cl)cc1)C1(F)CCNCC1` (single isomer, unassigned) [Example 543], at MDM2-p53 interaction, the inhibition at 0.001 µM was 68%. Besides, in the assay with SN40R2 cells, the inhibition at 10 µM is -6%.
On the same counts, the results for `CCC(O)(c1cc(F)c2c(c1)C(=O)N(Cc1ncc(Cl)cn1)[C@@]2(OC)c1ccc(Cl)cc1)C1(F)CCNCC1` (single isomer, unassigned) [Example 544] are 86% and 109%.
In the case of `CCC(O)(c1cc(F)c2c(c1)C(=O)N(Cc1ncc(Cl)cn1)[C@@]2(OCC1(C#N)CC1)c1ccc(Cl)cc1)C1(F)CCNCC1` (single isomer, unassigned) [Example 545], at MDM2-p53 interaction, the inhibition at 0.001 µM turned out to be 94%. Moreover, in the assay with SN40R2 cells, the inhibition at 3 µM was 4%.
Consider `CCC(O)(c1cc(F)c2c(c1)C(=O)N(Cc1ccc(C#N)cn1)[C@@]2(O[C@H]1CCOC1)c1ccc(Cl)cc1)C1(F)CCNCC1` (single isomer, unassigned) [Example 546], for which, at MDM2-p53 interaction, the inhibition at 0.001 µM stood at 86%. The inhibition at 10 µM in the assay on SN40R2 cells was determined as 17%.
In the case of `CCC(O)(c1cc(F)c2c(c1)C(=O)N(Cc1ncc(C#N)cn1)[C@@]2(O[C@H]1CCOC1)c1ccc(Cl)cc1)C1(F)CCNCC1` (single isomer, unassigned) [Example 547], at MDM2-p53 interaction, the inhibition at 0.001 µM came out at 82%. In the assay with SN40R2 cells, the inhibition at 10 µM turned out to be 4%.
For `CCC(O)(c1cc(F)c2c(c1)C(=O)N(Cc1ccc(Cl)cn1)[C@@]2(O[C@H]1CCOC1)c1ccc(Cl)cc1)C1(F)CCNCC1` (single isomer, unassigned) [Example 548], in that order: 82% and 111%.
`CCC(O)(c1cc(F)c2c(c1)C(=O)N(Cc1ccc(Cl)cn1)[C@@]2(OC[C@@H](C)O)c1ccc(Cl)cc1)C1(F)CCNCC1` (single isomer, unassigned) [Example 549]: the inhibition at 0.001 µM at MDM2-p53 interaction is 85%. Moreover, in the assay with SN40R2 cells, the inhibition at 10 µM turned out to be 33%.
For `CCC(O)(c1cc(F)c2c(c1)C(=O)N(Cc1ncc(Cl)cn1)[C@@]2(OC)c1ccc(Cl)cc1)C1(F)CCN(C2COC2)CC1` (single isomer, unassigned) [Example 552], in that order: 79% and 7%.
`CN1CCC(C(C)(O)c2cc(F)c3c(c2)C(=O)N(Cc2ncc(Cl)cn2)[C@@]3(OCC2(F)COC2)c2ccc(Cl)cc2)CC1` (single isomer, unassigned) [Example 558]: the inhibition at 0.003 µM at MDM2-p53 interaction came to 53%. Further, in the assay on SN40R2 cells, the inhibition at 10 µM came to 6%.
`CCC(O)(c1cc(F)c2c(c1)C(=O)N(Cc1ncc(C#N)cn1)[C@@]2(O[C@H]1CCOC1)c1ccc(Cl)cc1)C1(F)CCN(C)CC1` (single isomer, unassigned) [Example 561]: the inhibition at 0.001 µM at MDM2-p53 interaction is 47%. In addition, the inhibition at 10 µM in the assay with SN40R2 cells came out at 12%.
`CCC(O)(c1cc(F)c2c(c1)C(=O)N(Cc1ncc(Cl)cn1)[C@@]2(OC)c1ccc(Cl)cc1)C1(F)CCN(C)CC1` (single isomer, unassigned) [Example 563]: the inhibition at 0.001 µM at MDM2-p53 interaction worked out at 76%. Besides, in the assay on SN40R2 cells, the inhibition at 10 µM is 72%.
For the compound `CCC(O)(c1cc(F)c2c(c1)C(=O)N(Cc1ncc(Cl)cn1)[C@@]2(OCC1(C#N)CC1)c1ccc(Cl)cc1)C1(F)CCN(C)CC1` (single isomer, unassigned) [Example 564], the inhibition at 0.001 µM at MDM2-p53 interaction came to 86%. The inhibition at 3 µM with SN40R2 cells turned out to be 10%.
On to `CCC(O)(c1cc(F)c2c(c1)C(=O)N(Cc1ncc(Cl)cn1)[C@@]2(OCCO)c1ccc(Cl)cc1)C1(F)CCN(C)CC1` (single isomer, unassigned) [Example 565], for which the inhibition at 0.001 µM at MDM2-p53 interaction was determined as 65%. Further, the inhibition at 10 µM in the assay with SN40R2 cells turned out to be 11%.
For `CCC(O)(c1cc(F)c2c(c1)C(=O)N(Cc1ncc(Cl)cn1)[C@@]2(O[C@H]1C[C@@H](O)C1)c1ccc(Cl)cc1)C1(F)CCN(C)CC1` (single isomer, unassigned) [Example 570], in that order: 83% and 26%.
For the compound `CCC(O)(c1cc(F)c2c(c1)C(=O)N(Cc1ncc(Cl)cn1)[C@@]2(O[C@H]1CCOC1)c1ccc(Cl)cc1)C1(F)CCN(C)CC1` (single isomer, unassigned) [Example 571], the inhibition at 0.001 µM at MDM2-p53 interaction was 77%. The inhibition at 10 µM in the assay with SN40R2 cells was 38%.
For `CCC(O)(c1cc(F)c2c(c1)C(=O)N(Cc1ncc(C#N)cn1)[C@@]2(OCC1(C#N)CC1)c1ccc(Cl)cc1)C1(F)CCN(C)CC1` (single isomer, unassigned) [Example 574], in that order: 45% and 27%.
For `CCC(O)(c1cc(F)c2c(c1)C(=O)N(Cc1ncc(C#N)cn1)[C@@]2(OC)c1ccc(Cl)cc1)C1(F)CCN(C)CC1` (single isomer, unassigned) [Example 575], the inhibition at 0.001 µM on MDM2-p53 interaction came to 38%. In addition, the inhibition at 10 µM in the assay on SN40R2 cells was determined as 14%.
On the same counts, the results for `CCC(O)(c1cc(F)c2c(c1)C(=O)N(Cc1ncc(C#N)cn1)[C@@]2(OC)c1ccc(Cl)cc1)[C@H]1CC[C@H](O)CC1` (stereo partly drawn) [Example 504, 2-{[(1R)-1-(4-chlorophenyl)-7-fluoro-5-{1-hydroxy-1-[trans-4-hydroxycyclohexyl]propyl}-1-methoxy-3-oxo-2,3-dihydro-1H-isoindol-2-yl]methyl}pyrimidine-5-carbonitrile] are 71% and 0%.
`CC[C@@](O)(c1cc(F)c2c(c1)C(=O)N(Cc1ncc(C#N)cn1)[C@@]2(O[C@H]1C[C@@H](O)C1)c1ccc(Cl)cc1)C1(F)CCOCC1` [Example 505, 2-{[(1R)-1-(4-chlorophenyl)-7-fluoro-5-[(1R)-1-(4-fluorooxan-4-yl)-1-hydroxypropyl]-3-oxo-1-[cis-3-hydroxycyclobutoxy]-2,3-dihydro-1H-isoindol-2-yl]methyl}pyrimidine-5-carbonitrile]: on MDM2-p53 interaction, the inhibition at 0.001 µM came out at 60%. In addition, the inhibition at 10 µM in the assay on SN40R2 cells turned out to be 5%.
Consider `CC[C@](O)(c1cc(F)c2c(c1)C(=O)N(Cc1ncc(C#N)cn1)[C@@]2(O[C@H]1C[C@@H](O)C1)c1ccc(Cl)cc1)C1(F)CCOCC1` [Example 506, 2-{[(1R)-1-(4-chlorophenyl)-7-fluoro-5-[(1S)-1-(4-fluorooxan-4-yl)-1-hydroxypropyl]-3-oxo-1-[cis-3-hydroxycyclobutoxy]-2,3-dihydro-1H-isoindol-2-yl]methyl}pyrimidine-5-carbonitrile], for which the inhibition at 0.03 µM on MDM2-p53 interaction was 36%. In the assay with SN40R2 cells, the inhibition at 10 µM stood at 2%.
Regarding `CC[C@@](O)(c1cc(F)c2c(c1)C(=O)N(Cc1ncc(C#N)cn1)[C@@]2(O[C@H]1CCOC1)c1ccc(Cl)cc1)C1(F)CCOCC1` [Example 507, 2-{[(1R)-1-(4-chlorophenyl)-7-fluoro-5-[(1R)-1-(4-fluorooxan-4-yl)-1-hydroxypropyl]-3-oxo-1-[(3S)-oxolan-3-yloxy]-2,3-dihydro-1H-isoindol-2-yl]methyl}pyrimidine-5-carbonitrile], at MDM2-p53 interaction, the inhibition at 0.003 µM came to 65%. For the same compound, in the assay with SN40R2 cells, the inhibition at 3 µM is 5%.
On to `CCC(O)(c1cc(F)c2c(c1)C(=O)N(Cc1ccc(C#N)cn1)[C@@]2(OC1CC(O)C1)c1ccc(Cl)cc1)[C@H]1CC[C@H](O)CC1` (stereo partly drawn) [Example 520, 6-{[(1R)-1-(4-chlorophenyl)-7-fluoro-5-{1-hydroxy-1-[trans-4-hydroxycyclohexyl]propyl}-3-oxo-1-[cis-3-hydroxycyclobutoxy]-2,3-dihydro-1H-isoindol-2-yl]methyl}pyridine-3-carbonitrile], for which the inhibition at 0.03 µM on MDM2-p53 interaction was 32%. Besides, in the assay on SJSA-1 cells, the IC50 stood at 3.9 µM.
